{
  "source": "ChEMBL document CHEMBL3098117",
  "about": "“Identification and optimization of an aminoalcohol-carbazole series with antimalarial properties” (ACS Med Chem Lett, 2013)",
  "key": {"hERG (KCNH2)": {"biological_target": "hERG (KCNH2) (Homo sapiens, UniProt Q12809)", "sequence (Q12809 whole entry)": "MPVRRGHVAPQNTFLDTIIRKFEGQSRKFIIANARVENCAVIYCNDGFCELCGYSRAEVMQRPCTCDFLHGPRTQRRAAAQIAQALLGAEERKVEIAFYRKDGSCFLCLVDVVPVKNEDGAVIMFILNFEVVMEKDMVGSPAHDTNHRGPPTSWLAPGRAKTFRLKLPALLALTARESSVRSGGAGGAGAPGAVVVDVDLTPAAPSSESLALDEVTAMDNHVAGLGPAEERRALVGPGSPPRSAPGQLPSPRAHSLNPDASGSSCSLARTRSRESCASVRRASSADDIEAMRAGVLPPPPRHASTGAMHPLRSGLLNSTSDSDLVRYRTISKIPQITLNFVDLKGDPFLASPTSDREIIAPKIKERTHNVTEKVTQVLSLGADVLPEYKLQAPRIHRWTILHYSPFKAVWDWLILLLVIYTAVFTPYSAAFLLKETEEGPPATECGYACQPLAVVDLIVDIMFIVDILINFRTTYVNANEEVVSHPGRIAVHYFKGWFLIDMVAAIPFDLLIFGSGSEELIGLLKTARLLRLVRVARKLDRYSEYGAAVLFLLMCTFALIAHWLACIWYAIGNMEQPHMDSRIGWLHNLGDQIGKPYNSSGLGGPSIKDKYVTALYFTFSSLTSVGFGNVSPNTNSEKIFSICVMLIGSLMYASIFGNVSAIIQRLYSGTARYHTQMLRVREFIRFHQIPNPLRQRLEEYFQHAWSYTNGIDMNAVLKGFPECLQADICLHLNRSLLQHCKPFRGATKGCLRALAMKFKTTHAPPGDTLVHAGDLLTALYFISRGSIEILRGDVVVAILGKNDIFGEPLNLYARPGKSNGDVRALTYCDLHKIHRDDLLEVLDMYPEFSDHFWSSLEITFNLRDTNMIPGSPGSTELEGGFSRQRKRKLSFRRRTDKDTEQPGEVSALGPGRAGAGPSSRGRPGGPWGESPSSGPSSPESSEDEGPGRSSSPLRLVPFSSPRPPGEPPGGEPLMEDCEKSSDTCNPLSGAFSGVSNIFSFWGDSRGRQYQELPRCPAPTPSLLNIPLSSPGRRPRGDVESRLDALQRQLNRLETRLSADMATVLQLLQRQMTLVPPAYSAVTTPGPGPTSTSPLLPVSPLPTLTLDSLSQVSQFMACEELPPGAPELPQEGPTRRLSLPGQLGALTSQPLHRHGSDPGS", "assay": "Inhibition of human ERG expressed in CHO cells at 10 uM relative to control", "format": "cell-based", "conditions": "CHO cells expressing human ERG"}, "Plasmodium falciparum": {"test_system": "Plasmodium falciparum", "assay": "Antimalarial activity against chloroquine, pyrimethamine, cycloguanil-resistant Plasmodium falciparum 7G8", "format": "functional, organism-based"}, "Cytochrome P450 1A2": {"biological_target": "T1, Cytochrome P450 1A2 (Homo sapiens, UniProt P05177)", "T1 sequence (P05177 whole entry)": "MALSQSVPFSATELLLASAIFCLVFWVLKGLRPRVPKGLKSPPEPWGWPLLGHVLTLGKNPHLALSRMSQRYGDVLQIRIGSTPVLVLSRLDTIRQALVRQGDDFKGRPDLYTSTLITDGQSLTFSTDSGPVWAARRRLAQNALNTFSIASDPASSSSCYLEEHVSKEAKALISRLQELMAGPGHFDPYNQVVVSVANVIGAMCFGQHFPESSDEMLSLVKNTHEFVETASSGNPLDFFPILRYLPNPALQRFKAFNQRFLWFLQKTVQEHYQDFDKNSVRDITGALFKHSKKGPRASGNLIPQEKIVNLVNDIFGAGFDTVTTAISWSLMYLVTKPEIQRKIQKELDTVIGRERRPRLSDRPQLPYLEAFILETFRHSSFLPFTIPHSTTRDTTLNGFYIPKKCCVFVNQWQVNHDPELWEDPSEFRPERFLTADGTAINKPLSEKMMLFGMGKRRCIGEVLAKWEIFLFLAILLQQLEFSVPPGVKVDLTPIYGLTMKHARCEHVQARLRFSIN", "assay": "Inhibition of human recombinant CYP1A2 expressed in baculovirus-infected insect cells preincubated for 15 mins followed by substrate addition measured after 30 mins by luminescence assay", "format": "ADME", "conditions": "recombinant enzyme, 0.5 h"}},
  "note": "The source made the active and inactive calls. The calls are words filed in the database; no cut-off is given here.",
  "data": [
    {"compound": "OC(CNC1CCCCC1)Cn1c2ccc(Br)cc2c2cc(Br)ccc21", "note": "(racemic)", "values": [
      {"measurement": "inhibition at 10 µM", "setting": "hERG (KCNH2)", "result": 99, "unit": "%"},
      {"measurement": "Activity", "setting": "Plasmodium falciparum", "result": "Active"},
      {"measurement": "inhibition (INH)", "setting": "Cytochrome P450 1A2", "result": "Active"}
    ]}
  ]
}
